pIC50: −log10 of the molar value. Where two headings read alike, the source gives them in different places.
How the values were obtained:
[1] = tested on: NCI-H295R cells; assay: H295R steroidogenesis assay; format: cell-based, human; conditions: for Effect on androgen (steroid) synthesis, in words: H295R steroidogenesis assay; for IC50: read-out: Testosterone inhibition (IC50, μM); for IC20: read-out: Testosterone inhibition (IC20 µM)
Outline: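 Human adrenocortical NCI-H295R cells exposed 48 h to compounds in 2-fold dilutions from 0.8 to 50 μM (0.1% DMSO), three independent experiments. Ten steroid hormones in medium measured by LC-MS/MS and normalized to solvent controls; viability checked by MTT.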

[2] = PBK model first-order kinetic parameters fitted to in vivo ADME data; set-up: species or system rat; conditions: PBK model parameter; for Metabolism rate in liver, Total (L/h) KMetab: metabolic clearance
[3] = Fetal chemical exposure analysis (LC-QTOF) at GD21; format: in vivo, rat
Outline: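 Rat dams killed at GD21; pooled fetal trunk plasma (by sex, per litter, ~90 min post-dose) and amniotic fluid stored at −80 °C. Samples extracted with acetonitrile (C-18 cleanup) and analysed by positive-ESI LC-QTOF; quantified from (M+H)+ extracted-ion chromatograms ±0.005 Da against matrix-matched plasma standards.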

[4] = set-up: method as in U.S. EPA 2012; conditions: EPI Suite, experimental preferred over modeled; ref U.S. EPA 2012; cited from earlier work

Row | Structure (SMILES) | Effect on androgen (steroid) synthesis, in words [1] | IC50 ([1]; Homo sapiens, NCI-H295R, 48 h) | Corticosterone, LOEC ([1]; multiple contrast tests) | Estradiol, LOEC ([1]; multiple contrast tests) | OH-Progesterone, LOEC ([1]; multiple contrast tests) | Fecal excretion rate from gut (L/h) KFeces [2] | Portal GI absorption rate into liver (L/h) KAS [2] | Urine excretion rate from kidney (L/h) KUrine [2] | Metabolism rate in liver, Total (L/h) KMetab [2] | log Kow [4] | other results
1 | COc1ccc(C(=CC(=O)N2CCOCC2)c2ccc(Cl)cc2)cc1OC [Dimethomorph, dimethomorph] | inhibited testosterone synthesis | > 50 µM | 0.8 µM | 0.8 µM | 12.5 µM | 2 L/h | 1 L/h | 0.01 L/h | 0.3 L/h | 2.68 | Androstenedione (relative to controls), mean ([1]; 0.8 µM): 0.83; Testosterone (relative to controls), mean ([1]; 0.8 µM): 0.88; Androstenedione (relative to controls), mean ([1]; 1.6 µM): 0.81; Testosterone (relative to controls), mean ([1]; 1.6 µM): 0.84; Androstenedione (relative to controls), mean ([1]; 3.1 µM): 0.80; Testosterone (relative to controls), mean ([1]; 3.1 µM): 0.76; Androstenedione (relative to controls), mean ([1]; 6.3 µM): 0.89; Testosterone (relative to controls), mean ([1]; 6.3 µM): 0.74; Androstenedione (relative to controls), mean ([1]; 12.5 µM): 0.77; Testosterone (relative to controls), mean ([1]; 12.5 µM): 0.68; Androstenedione (relative to controls), mean ([1]; 25 µM): 0.70; Testosterone (relative to controls), mean ([1]; 25 µM): 0.73; Androstenedione (relative to controls), mean ([1]; 50 µM): 0.67; Testosterone (relative to controls), mean ([1]; 50 µM): 0.67; IC20 ([1]; Homo sapiens, NCI-H295R): 2800 nM; DHEA, LOEC ([1]; multiple contrast tests): 25 µM; Measured concentration in male fetuses ([3]; fetal plasma GD21, dams dosed 20 mg/kg BW per day (Study 3)): 1.35 µM
2 | CC12CC1(C)C(=O)N(c1cc(Cl)cc(Cl)c1)C2=O (centres unmarked) [Procymidone, procymidone, reference compound] | inhibited the synthesis of androgens | 6 µM |  |  |  | 0.04 L/h |  | 0.08 L/h |  | 3.08 | Measured concentration in male fetuses ([3]; male, Sprague-Dawley, rat, in vivo, 40 mg/kg/day): 7.8 µM
3 | N#Cc1c[nH]cc1-c1cccc2c1OC(F)(F)O2 [Fludioxonil, fludioxonil] | inhibited testosterone synthesis |  | 12.5 µM | 3.1 µM | 3.1 µM | 3 L/h | 1 L/h | 0.01 L/h | 0.3 L/h | 4.12 | pIC50 ([1]; Homo sapiens, NCI-H295R cells, 48 h, NA = not active up to 50μM, read-out: Testosterone inhibition (IC50)): 4.97; IC20 ([1]; Homo sapiens, NCI-H295R cells): 1300 nM; Androstendione, LOEC ([1]; multiple contrast tests): 25 µM; Testosterone, lowest observed effect concentration (LOEC) ([1]; multiple contrast tests): 1.6 µM; Measured concentration in male fetuses ([3]; fetal plasma GD21, dams dosed 60 mg/kg BW per day (Study 3)): 3.3 µM

Reference: paper PMC7687371, “Quantitative in Vitro to in Vivo Extrapolation (QIVIVE) for Predicting Reduced Anogenital Distance Produced by Anti-Androgenic Pesticides in a Rodent Model for Male Reproductive Disorders” (Environmental Health Perspectives, 2020)
